Experimental data published in patent US12427151B2, “Compositions and method of treating cancer” (The Regents of the University of California, priority 2017, dated 2025).

Key:
GAS = experiment: Stability of antimicrobial activity after heat or protease treatment (radial diffusion assay); assay type: physicochemical, group A streptococcus; details: activity against GAS
Source text: (a) Screening for antimicrobial activity of culture supernatant from 44 strains of S. epidermidis strains isolated from normal human skin by radial diffusion assay against group A streptococcus (GAS). Data represent diameter of growth inhibition zone of conditioned media of each strain. UD=undetectable. (b) Elution profile of the antimicrobial compound purified from culture supernatant of S. epidermidis MO34 by HPLC using a PolyHYDROXYMETHYL. The last step of 5 purification steps is shown. The insert panel represents antimicrobial activity of each fraction on radial diffusion assay against GAS. Green line represents a gradient of H2O in acetonitrile. (c-d) Stability of antimicrobial molecules from S. epidermidis producing the strongest antibiotic activity (MO34) against GAS after heat-treatment (100° C. for indicated time) (c) and incubation with proteinase K (2 mg/mL) or papain (2 mg/mL) at 37° C. for 3 hrs, followed by 5-min incubation at 90° C. to inactivate enzyme (d). Antimicrobial activity against GAS was determined by radial diffusion assay.
To characterize the molecule(s) responsible for antimicrobial activity secreted from the MO34 strain, the antimicrobial molecule was purified from the conditioned media based on activity against GAS. A single peak was isolated in the last chromatography of 5 purification steps (FIG. 1b). […]

GAS (NZ131) = experiment: BrdU incorporation assay in bacteria; assay type: cell-based, group A Streptococcus; details: 6-HAP 25 μg/mL, 30 or 60 min
Description: (§1) (a) Time course killing of GAS in THB containing 6-HAP (25 μg/mL), mitomycin C (5 μg/mL), or LL-37 (10 μM). At each indicated time point, live GAS in the media was measured by counting CFU on an agar plate. The data represent mean±SE of four individual experiments. (b) Membrane permeability of GAS incubated in THB containing 6-HAP (25 μg/mL), mitomycin C (5 μg/mL) and LL-37 (10 μM) for 1 hr. The bacteria with compromised plasma membranes (Red) can be distinguished from those with intact membranes (Green). (c) BrdU incorporation into nascent DNA of GAS after incubation with 6-HAP (25 μg/mL) or mitomycin C (5 μg/mL) in THB containing BrdU (10 μM) for 30 or 60 min. (d) BrdU incorporation into nascent DNA of S. epidermidis ATCC12228 after incubation with 6-HAP (25 μg/mL) or mitomycin C (5 μg/mL) in THB containing BrdU (10 μM) for 60 min. The data represent mean±SE of five individual experiments (*P<0.05 and **P<0.01 by Student's t-test vs vehicle control). (e-f) Capacity of 6-HAP to block in vitro DNA extension by Klenow fragment polymerase. […] Extension reaction was analyzed on a 20% acrylamide gel by electrophoresis (f). […] GAS survival was measured by counting CFU. […]
(§2) BrdU incorporation assay. […] BrdU incorporation into nascent DNA was measured in a time-dependent manner using BrdU incorporation assay kit (Roche) according to the manual.

[1] = tested on: S. epidermidis (ATCC12228); experiment: BrdU incorporation assay in bacteria; assay type: cell-based; details: 6-HAP 25 μg/mL, 60 min
Description: as §1, §2

[2] = tested on: Klenow fragment (exo) DNA polymerase; experiment: In vitro DNA polymerization assay; assay type: biochemical; details: cell free system, in the presence of 6-HAP
Description: as §1, with “min.” for “min. The data represent mean±SE of five individual experiments (*P<0.05 and **P<0.01 by Student's t-test vs vehicle control). (e-f) Capacity of 6-HAP to block in vitro DNA extension by Klenow fragment polymerase.”
In vitro DNA polymerization assay. […] Fluorescence was visualized with Oddyssey Imaging System (LI-COR Biosciences, Lincoln, NE).
We next assessed the effect of 6-HAP on DNA synthesis. […] To directly examine the action of 6-HAP on DNA extension in a cell free system, 25-bp templates and matching 18-bp fluorescence primers were designed to measure DNA extension in vitro by Klenow (exo) DNA polymerase (FIG. 4e).

ONc1ncnc2nc[nH]c12 [6-HAP, 6-N-hydroxyaminopurine]
heat stability of antimicrobial activity (GAS; 100° C. for indicated time): heat-stable
protease sensitivity of antimicrobial activity (GAS; proteinase K (2 mg/mL) or papain (2 mg/mL) at 37° C. for 3 hrs): protease-insensitive
BrdU incorporation into the genomic DNA of GAS (GAS (NZ131)): Significant suppression
BrdU incorporation in S. epidermidis [1]: did not affect
DNA extension, template requiring adenosine (X=T) [2]: lack of extension
DNA extension, template requiring cytosine (X=G) [2]: synthesis of the expected extended DNA product
